Key:
[1] = biological target: T1, 5-hydroxytryptamine receptor 1A (Rattus norvegicus, UniProt P19327)
T1 sequence (P19327 whole entry): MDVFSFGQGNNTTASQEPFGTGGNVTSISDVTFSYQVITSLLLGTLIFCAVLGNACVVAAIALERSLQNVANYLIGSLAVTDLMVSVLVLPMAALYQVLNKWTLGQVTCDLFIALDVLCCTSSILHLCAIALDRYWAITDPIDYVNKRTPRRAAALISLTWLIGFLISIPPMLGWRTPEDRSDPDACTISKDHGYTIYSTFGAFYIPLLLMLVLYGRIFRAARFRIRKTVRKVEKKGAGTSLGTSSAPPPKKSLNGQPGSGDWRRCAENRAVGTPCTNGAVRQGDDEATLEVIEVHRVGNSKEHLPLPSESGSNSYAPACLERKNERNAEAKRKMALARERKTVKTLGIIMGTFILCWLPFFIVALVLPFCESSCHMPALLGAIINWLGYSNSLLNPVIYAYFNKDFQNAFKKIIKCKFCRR
Description: (§1) In vitro binding affinity for 5-hydroxytryptamine 1A receptor in rat hippocampal membranes by [125I]-labeled agonist displacement.

[2] = system: Rattus norvegicus; assay: Biodistribution was measured in rat muscle by injecting the radiolabeled compound intravenously and the value measured after 2 min; format: ADME, organism-based, Muscle tissue; conditions: in vivo, iv
[3] = system: Rattus norvegicus; assay: Biodistribution was measured in rat hippocampus by injecting the radiolabeled compound intravenously and the value measured after 60 min; format: ADME, organism-based; conditions: in vivo, iv, 1 h
[4] = system: Rattus norvegicus; assay: Biodistribution was measured in blood of rat by injecting the radiolabeled compound intravenously and the value measured after 30 min; format: ADME, organism-based; conditions: in vivo, iv, 0.5 h
[5] = system: Rattus norvegicus; assay: Biodistribution was measured in rat lung by injecting the radiolabeled compound intravenously and the value measured after 2 min; format: ADME, organism-based; conditions: in vivo, iv
[6] = system: Rattus norvegicus; assay: Biodistribution was measured in rat thyroid by injecting the radiolabeled compound intravenously and the value measured after 60 min; format: ADME, organism-based, Thyroid gland; conditions: in vivo, iv, 1 h
[7] = system: Rattus norvegicus; assay: Biodistribution was measured in rat heart by injecting the radiolabeled compound intravenously and the value measured after 2 min; format: ADME, organism-based; conditions: in vivo, iv
[8] = system: Rattus norvegicus; assay: Biodistribution was measured in rat lung by injecting the radiolabeled compound intravenously and the value measured after 30 min; format: ADME, organism-based; conditions: in vivo, iv, 0.5 h
[9] = system: Rattus norvegicus; assay: Biodistribution was measured in rat hippocampus by injecting the radiolabeled compound intravenously and the value measured after 2 min; format: ADME, organism-based; conditions: in vivo, iv
[10] = system: Rattus norvegicus; assay: Biodistribution was measured in rat heart by injecting the radiolabeled compound intravenously and the value measured after 30 min; format: ADME, organism-based; conditions: in vivo, iv, 0.5 h
[11] = system: Rattus norvegicus; assay: Biodistribution was measured in rat muscle by injecting the radiolabeled compound intravenously and the value measured after 30 min; format: ADME, organism-based, Muscle tissue; conditions: in vivo, iv, 0.5 h
[12] = system: Rattus norvegicus; assay: Biodistribution was measured in rat cortex by injecting the radiolabeled compound intravenously and the value measured after 60 min; format: ADME, organism-based; conditions: in vivo, iv, 1 h
[13] = Biodistribution was measured in hippocampus region(HP/CB) by injecting the radiolabeled compound intravenously and the value measured after 60 min; format: ADME, organism-based; conditions: in vivo, iv, 1 h
[14] = system: Rattus norvegicus; assay: Biodistribution was measured in rat cortex by injecting the radiolabeled compound intravenously and the value measured after 30 min; format: ADME, organism-based; conditions: in vivo, iv, 0.5 h
[15] = system: Rattus norvegicus; assay: Biodistribution was measured in rat brain by injecting the radiolabeled compound intravenously and the value measured after 2 min; format: ADME, organism-based; conditions: in vivo, iv
[16] = system: Rattus norvegicus; assay: Biodistribution was measured in rat brain by injecting the radiolabeled compound intravenously and the value measured after 60 min; format: ADME, organism-based; conditions: in vivo, iv, 1 h
[17] = system: Rattus norvegicus; assay: Biodistribution was measured in rat thyroid by injecting the radiolabeled compound intravenously and the value measured after 2 min; format: ADME, organism-based, Thyroid gland; conditions: in vivo, iv
[18] = system: Rattus norvegicus; assay: Biodistribution was measured in rat thyroid by injecting the radiolabeled compound intravenously and the value measured after 30 min; format: ADME, organism-based, Thyroid gland; conditions: in vivo, iv, 0.5 h
[19] = Biodistribution was measured in hippocampus region(HP/CB) by injecting the radiolabeled compound intravenously and the value measured after 30 min; format: ADME, organism-based; conditions: in vivo, iv, 0.5 h
[20] = system: Rattus norvegicus; assay: Biodistribution was measured in rat cerebellum by injecting the radiolabeled compound intravenously and the value measured after 60 min; format: ADME, organism-based; conditions: in vivo, iv, 1 h
[21] = system: Rattus norvegicus; assay: Biodistribution was measured in rat cerebellum by injecting the radiolabeled compound intravenously and the value measured after 2 min; format: ADME, organism-based; conditions: in vivo, iv
[22] = system: Rattus norvegicus; assay: Biodistribution was measured in rat cerebellum by injecting the radiolabeled compound intravenously and the value measured after 30 min; format: ADME, organism-based; conditions: in vivo, iv, 0.5 h
[23] = system: Rattus norvegicus; assay: Biodistribution was measured in rat spleen by injecting the radiolabeled compound intravenously and the value measured after 60 min; format: ADME, organism-based; conditions: in vivo, iv, 1 h
[24] = system: Rattus norvegicus; assay: Biodistribution was measured in rat striatum by injecting the radiolabeled compound intravenously and the value measured after 2 min; format: ADME, organism-based; conditions: in vivo, iv
[25] = system: Rattus norvegicus; assay: Biodistribution was measured in rat cortex by injecting the radiolabeled compound intravenously and the value measured after 2 min; format: ADME, organism-based; conditions: in vivo, iv
[26] = system: Rattus norvegicus; assay: Biodistribution was measured in rat muscle by injecting the radiolabeled compound intravenously and the value measured after 60 min; format: ADME, organism-based, Muscle tissue; conditions: in vivo, iv, 1 h
[27] = system: Rattus norvegicus; assay: Biodistribution was measured in rat hippocampus by injecting the radiolabeled compound intravenously and the value measured after 30 min; format: ADME, organism-based; conditions: in vivo, iv, 0.5 h
[28] = system: Rattus norvegicus; assay: Biodistribution was measured in rat liver by injecting the radiolabeled compound intravenously and the value measured after 60 min; format: ADME, organism-based; conditions: in vivo, iv, 1 h
[29] = system: Rattus norvegicus; assay: Biodistribution was measured in rat lung by injecting the radiolabeled compound intravenously and the value measured after 60 min; format: ADME, organism-based; conditions: in vivo, iv, 1 h
[30] = system: Rattus norvegicus; assay: Biodistribution was measured in rat kidney by injecting the radiolabeled compound intravenously and the value measured after 2 min; format: ADME, organism-based; conditions: in vivo, iv
[31] = system: Rattus norvegicus; assay: Biodistribution was measured in rat striatum by injecting the radiolabeled compound intravenously and the value measured after 30 min; format: ADME, organism-based; conditions: in vivo, iv, 0.5 h
[32] = system: Rattus norvegicus; assay: Biodistribution was measured in rat striatum by injecting the radiolabeled compound intravenously and the value measured after 60 min; format: ADME, organism-based; conditions: in vivo, iv, 1 h
[33] = system: Rattus norvegicus; assay: Biodistribution was measured in rat spleen by injecting the radiolabeled compound intravenously and the value measured after 2 min; format: ADME, organism-based; conditions: in vivo, iv
[34] = biological target: T1, 5-hydroxytryptamine receptor 1A; remark: listed apart in the source
Description: as §1

[35] = system: Rattus norvegicus; assay: Biodistribution was measured in rat liver by injecting the radiolabeled compound intravenously and the value measured after 2 min; format: ADME, organism-based; conditions: in vivo, iv
[36] = Biodistribution was measured in hippocampus region(HP/CB) by injecting the radiolabeled compound intravenously and the value measured after 2 min; format: ADME, organism-based; conditions: in vivo, iv
[37] = system: Rattus norvegicus; assay: Biodistribution was measured in rat kidney by injecting the radiolabeled compound intravenously and the value measured after 60 min; format: ADME, organism-based; conditions: in vivo, iv, 1 h
[38] = system: Rattus norvegicus; assay: Biodistribution was measured in rat kidney by injecting the radiolabeled compound intravenously and the value measured after 30 min; format: ADME, organism-based; conditions: in vivo, iv, 0.5 h
[39] = system: Rattus norvegicus; assay: Biodistribution was measured in rat skin by injecting the radiolabeled compound intravenously and the value measured after 60 min; format: ADME, organism-based, Zone of skin; conditions: in vivo, iv, 1 h
[40] = system: Rattus norvegicus; assay: Biodistribution was measured in rat heart by injecting the radiolabeled compound intravenously and the value measured after 60 min; format: ADME, organism-based; conditions: in vivo, iv, 1 h
[41] = system: Rattus norvegicus; assay: Biodistribution was measured in rat skin by injecting the radiolabeled compound intravenously and the value measured after 30 min; format: ADME, organism-based, Zone of skin; conditions: in vivo, iv, 0.5 h
[42] = system: Rattus norvegicus; assay: Biodistribution was measured in rat brain by injecting the radiolabeled compound intravenously and the value measured after 30 min; format: ADME, organism-based; conditions: in vivo, iv, 0.5 h
[43] = system: Rattus norvegicus; assay: Biodistribution was measured in rat spleen by injecting the radiolabeled compound intravenously and the value measured after 30 min; format: ADME, organism-based; conditions: in vivo, iv, 0.5 h
[44] = system: Rattus norvegicus; assay: Biodistribution was measured in blood of rat by injecting the radiolabeled compound intravenously and the value measured after 60 min; format: ADME, organism-based; conditions: in vivo, iv, 1 h
[45] = system: Rattus norvegicus; assay: Biodistribution was measured in rat liver by injecting the radiolabeled compound intravenously and the value measured after 30 min; format: ADME, organism-based; conditions: in vivo, iv, 0.5 h
[46] = system: Rattus norvegicus; assay: Biodistribution was measured in blood of rat by injecting the radiolabeled compound intravenously and the value measured after 2 min; format: ADME, organism-based; conditions: in vivo, iv

Compound `COc1ccccc1N1CCN(CCn2c(=O)c3ccccc3c3ccccc32)CC1` has a Ki [1] of 8.9 nM.

In the case of `COc1ccccc1N1CCN(CCN2Cc3ccccc3C2=O)CC1`, the Ki [1] is reported as 14.9 nM.

Compound `COc1ccccc1N1CCN(CCN2C(=O)CCC2c2ccc(I)cc2)CC1` (stereo not drawn) has a Biodistribution [2] of 14.07 % dose organ-1, a Biodistribution [3] of 0.045 % dose organ-1 and a Biodistribution [4] of 3.45 % dose organ-1. The Biodistribution [5] was 1.54 % dose organ-1, the Biodistribution [6] was 0.03 % dose organ-1 and the Biodistribution [7] was 0.77 % dose organ-1. The Biodistribution [8] was 0.75 % dose organ-1, the Biodistribution [9] was 0.47 % dose organ-1 and the Biodistribution [10] was 0.33 % dose organ-1. The Biodistribution [11] was 19.08 % dose organ-1, the Biodistribution [12] was 0.048 % dose organ-1 and the Biodistribution [13] was 0.88 % dose organ-1. The Biodistribution [14] was 0.14 % dose organ-1, the Biodistribution [15] was 0.71 % dose organ-1 and the Biodistribution [16] was 0.08 % dose organ-1. It also gave a Biodistribution [17] of 0.06 % dose organ-1, a Biodistribution [18] of 0.04 % dose organ-1 and a Biodistribution [19] of 1.08 % dose organ-1. It also gave a Biodistribution [20] of 0.051 % dose organ-1, a Biodistribution [21] of 0.46 % dose organ-1 and a Biodistribution [22] of 0.12 % dose organ-1. For the same compound, the Biodistribution [23] was 0.15 % dose organ-1, the Biodistribution [24] was 0.55 % dose organ-1 and the Biodistribution [25] was 0.57 % dose organ-1. For the same compound, the Biodistribution [26] was 9.05 % dose organ-1, the Biodistribution [27] was 0.13 % dose organ-1 and the Biodistribution [28] was 17.95 % dose organ-1. For the same compound, the Biodistribution [29] was 0.42 % dose organ-1, the Biodistribution [30] was 3.02 % dose organ-1 and the Biodistribution [31] was 0.15 % dose organ-1. It also gave a Biodistribution [32] of 0.053 % dose organ-1, a Biodistribution [33] of 0.27 % dose organ-1 and a Ki [1] of 2.54 nM. The Ki [34] was 2.54 nM, the Biodistribution [35] was 19.49 % dose organ-1 and the Biodistribution [36] was 1.02 % dose organ-1. For the same compound, the Biodistribution [37] was 1 % dose organ-1, the Biodistribution [38] was 2.2 % dose organ-1 and the Biodistribution [39] was 6.93 % dose organ-1. For the same compound, the Biodistribution [40] was 0.18 % dose organ-1, the Biodistribution [41] was 7.41 % dose organ-1 and the Biodistribution [42] was 0.21 % dose organ-1. The Biodistribution [43] was 0.22 % dose organ-1, the Biodistribution [44] was 2.08 % dose organ-1 and the Biodistribution [45] was 23.02 % dose organ-1. For the same compound, the Biodistribution [46] was 5.6 % dose organ-1.
